From ChEMBL document CHEMBL4043122, “Discovery of spiro[indole-3,2'-pyrrolidin]-2(1H)-one based inhibitors targeting Brr2, a core component of the U5 snRNP” (Bioorg Med Chem, 2017)
Converted amounts (≈) assume the structure as drawn. The source made the active and inactive calls. The calls are words filed in the database; no cut-off is given here.

Tests used:
[1] = target: T1, U5 small nuclear ribonucleoprotein 200 kDa helicase (Homo sapiens, UniProt O75643); test: Inhibition of full length recombinant human N-terminal His-tagged BRR2 RNA dependent ATPase activity expressed in baculovirus infected Sf9 cells using single stranded poly(U) RNA as substrate after 30 mins by ADP-Glo luminescence assay
T1 sequence (O75643 whole entry): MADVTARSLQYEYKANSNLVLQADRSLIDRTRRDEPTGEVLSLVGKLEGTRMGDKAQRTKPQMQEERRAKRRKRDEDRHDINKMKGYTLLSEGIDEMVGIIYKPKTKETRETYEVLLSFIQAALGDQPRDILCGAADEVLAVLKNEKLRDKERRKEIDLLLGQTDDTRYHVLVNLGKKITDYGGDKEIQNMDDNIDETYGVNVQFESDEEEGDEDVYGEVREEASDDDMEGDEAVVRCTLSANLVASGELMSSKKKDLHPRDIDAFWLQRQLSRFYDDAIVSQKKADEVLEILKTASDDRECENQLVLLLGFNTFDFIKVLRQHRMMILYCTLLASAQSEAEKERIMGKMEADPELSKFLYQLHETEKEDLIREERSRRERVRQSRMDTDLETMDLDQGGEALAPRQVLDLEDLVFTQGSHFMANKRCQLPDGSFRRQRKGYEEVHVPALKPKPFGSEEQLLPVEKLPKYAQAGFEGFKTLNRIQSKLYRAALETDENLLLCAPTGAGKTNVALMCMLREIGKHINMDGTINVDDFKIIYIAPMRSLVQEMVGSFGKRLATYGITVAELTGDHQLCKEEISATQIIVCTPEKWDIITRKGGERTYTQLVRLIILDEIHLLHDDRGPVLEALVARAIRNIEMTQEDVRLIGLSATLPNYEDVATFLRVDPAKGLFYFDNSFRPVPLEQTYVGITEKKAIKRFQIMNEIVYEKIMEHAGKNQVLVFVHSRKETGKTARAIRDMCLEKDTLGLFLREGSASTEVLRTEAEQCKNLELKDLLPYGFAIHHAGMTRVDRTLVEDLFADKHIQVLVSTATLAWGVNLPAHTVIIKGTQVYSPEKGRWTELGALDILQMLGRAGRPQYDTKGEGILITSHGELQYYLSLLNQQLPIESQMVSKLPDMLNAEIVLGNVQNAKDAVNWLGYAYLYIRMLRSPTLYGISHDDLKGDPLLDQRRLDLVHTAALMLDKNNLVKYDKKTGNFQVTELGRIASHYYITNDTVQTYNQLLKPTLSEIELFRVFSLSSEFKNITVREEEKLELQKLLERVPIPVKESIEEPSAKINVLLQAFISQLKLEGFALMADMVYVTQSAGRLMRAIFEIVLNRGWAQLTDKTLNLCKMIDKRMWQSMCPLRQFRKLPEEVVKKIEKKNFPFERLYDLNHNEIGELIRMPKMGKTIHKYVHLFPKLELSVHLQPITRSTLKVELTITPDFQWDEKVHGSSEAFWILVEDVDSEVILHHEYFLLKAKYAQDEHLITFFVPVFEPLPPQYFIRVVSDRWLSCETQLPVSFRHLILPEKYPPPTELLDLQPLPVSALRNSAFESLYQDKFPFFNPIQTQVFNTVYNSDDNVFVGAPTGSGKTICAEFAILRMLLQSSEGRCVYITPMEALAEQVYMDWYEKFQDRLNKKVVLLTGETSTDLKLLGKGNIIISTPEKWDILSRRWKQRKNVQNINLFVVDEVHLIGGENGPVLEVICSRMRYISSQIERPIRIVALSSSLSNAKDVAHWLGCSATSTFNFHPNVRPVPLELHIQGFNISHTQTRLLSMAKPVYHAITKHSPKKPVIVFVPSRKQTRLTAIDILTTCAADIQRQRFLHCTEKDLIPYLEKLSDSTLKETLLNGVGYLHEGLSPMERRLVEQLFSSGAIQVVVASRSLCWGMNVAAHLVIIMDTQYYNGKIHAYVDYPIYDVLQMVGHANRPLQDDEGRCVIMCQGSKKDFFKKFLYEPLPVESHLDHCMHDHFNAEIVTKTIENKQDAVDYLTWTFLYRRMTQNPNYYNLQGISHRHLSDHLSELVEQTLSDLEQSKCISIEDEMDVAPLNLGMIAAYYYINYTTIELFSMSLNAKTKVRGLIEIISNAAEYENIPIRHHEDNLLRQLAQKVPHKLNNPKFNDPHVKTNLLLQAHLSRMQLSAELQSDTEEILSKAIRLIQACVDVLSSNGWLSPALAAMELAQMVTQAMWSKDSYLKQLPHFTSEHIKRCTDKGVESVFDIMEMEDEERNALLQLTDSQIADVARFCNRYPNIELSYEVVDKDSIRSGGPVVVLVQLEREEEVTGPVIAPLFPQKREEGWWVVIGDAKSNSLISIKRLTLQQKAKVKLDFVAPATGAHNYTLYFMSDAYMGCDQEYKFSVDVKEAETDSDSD

[2] = target: Eukaryotic initiation factor 4A-I (Homo sapiens, UniProt P60842); test: Inhibition of elF4G-induced full length recombinant human N-terminal His6-SUMO-tagged eIF4A1 RNA dependent ATPase activity expressed in Escherichia coli BL21(DE3) using single stranded poly(U) RNA as substrate after 30 mins by ADP-Glo luminescence assay
Eukaryotic initiation factor 4A-I, sequence (P60842 whole entry): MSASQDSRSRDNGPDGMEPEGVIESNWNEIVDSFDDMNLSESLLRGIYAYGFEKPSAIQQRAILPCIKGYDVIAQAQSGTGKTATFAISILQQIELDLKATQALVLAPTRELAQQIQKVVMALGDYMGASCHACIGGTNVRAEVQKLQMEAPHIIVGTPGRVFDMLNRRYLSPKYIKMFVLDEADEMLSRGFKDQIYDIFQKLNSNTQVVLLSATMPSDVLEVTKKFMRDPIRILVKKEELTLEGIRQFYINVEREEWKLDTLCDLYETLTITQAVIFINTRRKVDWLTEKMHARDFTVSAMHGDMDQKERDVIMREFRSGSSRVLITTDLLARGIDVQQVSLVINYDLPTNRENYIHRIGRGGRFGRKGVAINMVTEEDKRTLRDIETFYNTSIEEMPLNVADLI

[3] = target: Eukaryotic initiation factor 4A-III (Homo sapiens, UniProt P38919); test: Inhibition of MLN51-induced full length recombinant human N-terminal His6/SUMO-tagged eIF4A3 RNA dependent ATPase activity expressed in Escherichia coli BL21(DE3) using single stranded poly(U) RNA as substrate after 30 mins by ADP-Glo luminescence assay
Eukaryotic initiation factor 4A-III, sequence (P38919 whole entry): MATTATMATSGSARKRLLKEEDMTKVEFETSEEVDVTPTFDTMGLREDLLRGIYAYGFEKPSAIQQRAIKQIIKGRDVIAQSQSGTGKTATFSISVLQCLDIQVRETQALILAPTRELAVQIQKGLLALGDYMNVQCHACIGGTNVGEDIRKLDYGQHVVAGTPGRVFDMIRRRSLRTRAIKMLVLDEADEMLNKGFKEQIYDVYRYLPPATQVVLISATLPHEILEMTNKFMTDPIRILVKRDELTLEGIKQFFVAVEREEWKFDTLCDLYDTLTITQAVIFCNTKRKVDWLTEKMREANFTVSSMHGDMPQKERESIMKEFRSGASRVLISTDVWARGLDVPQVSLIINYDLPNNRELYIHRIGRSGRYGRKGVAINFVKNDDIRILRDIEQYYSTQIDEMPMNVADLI

[4] = target: T2, ATP-dependent RNA helicase DHX29 (Homo sapiens, UniProt Q7Z478); test: Inhibition of full length recombinant human N-terminal His-FLAG-tagged DHX29 RNA dependent ATPase activity expressed in baculovirus infected Sf9 insect cells using single stranded poly(U) RNA as substrate after 30 mins by ADP-Glo luminescence assay
T2 sequence (Q7Z478 whole entry): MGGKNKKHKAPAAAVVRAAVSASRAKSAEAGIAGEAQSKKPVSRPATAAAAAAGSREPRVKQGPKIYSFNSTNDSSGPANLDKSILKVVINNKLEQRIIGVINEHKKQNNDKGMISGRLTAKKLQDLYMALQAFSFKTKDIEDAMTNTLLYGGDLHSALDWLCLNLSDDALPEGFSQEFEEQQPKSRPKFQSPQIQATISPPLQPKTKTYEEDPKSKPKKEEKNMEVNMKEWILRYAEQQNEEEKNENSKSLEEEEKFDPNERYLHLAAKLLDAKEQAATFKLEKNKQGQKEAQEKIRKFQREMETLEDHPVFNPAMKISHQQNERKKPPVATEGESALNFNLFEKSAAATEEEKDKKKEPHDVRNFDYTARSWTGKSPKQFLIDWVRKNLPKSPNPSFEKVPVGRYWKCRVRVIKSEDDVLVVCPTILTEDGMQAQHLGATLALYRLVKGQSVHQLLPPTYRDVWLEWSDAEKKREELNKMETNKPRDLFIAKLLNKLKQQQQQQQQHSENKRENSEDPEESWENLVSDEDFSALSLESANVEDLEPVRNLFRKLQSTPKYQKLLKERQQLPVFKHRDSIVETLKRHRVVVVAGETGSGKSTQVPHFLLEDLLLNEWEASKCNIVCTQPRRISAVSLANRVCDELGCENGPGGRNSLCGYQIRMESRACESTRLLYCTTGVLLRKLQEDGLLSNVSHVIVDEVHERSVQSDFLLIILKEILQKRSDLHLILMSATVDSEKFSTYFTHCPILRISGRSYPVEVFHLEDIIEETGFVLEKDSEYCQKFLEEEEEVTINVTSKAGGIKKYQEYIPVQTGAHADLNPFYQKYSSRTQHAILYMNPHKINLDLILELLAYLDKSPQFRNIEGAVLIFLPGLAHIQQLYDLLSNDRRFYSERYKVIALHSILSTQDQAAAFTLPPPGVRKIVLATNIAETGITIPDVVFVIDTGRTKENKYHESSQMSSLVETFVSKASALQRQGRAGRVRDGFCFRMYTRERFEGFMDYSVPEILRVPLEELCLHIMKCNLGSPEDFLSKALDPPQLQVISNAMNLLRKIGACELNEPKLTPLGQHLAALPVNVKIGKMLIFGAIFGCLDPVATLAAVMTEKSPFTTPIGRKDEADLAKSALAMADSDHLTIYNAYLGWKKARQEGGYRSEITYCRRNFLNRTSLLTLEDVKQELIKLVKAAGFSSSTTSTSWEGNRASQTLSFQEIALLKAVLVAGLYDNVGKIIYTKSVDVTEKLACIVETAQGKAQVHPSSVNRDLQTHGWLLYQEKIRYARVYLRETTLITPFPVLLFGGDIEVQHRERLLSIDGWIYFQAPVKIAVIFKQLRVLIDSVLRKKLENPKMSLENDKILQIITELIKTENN

[5] = Solubility of the compound at pH 6.8; format: physicochemical; conditions: buffer
[6] = target: T1, U5 small nuclear ribonucleoprotein 200 kDa helicase; test: Inhibition of full length recombinant human N-terminal His-tagged BRR2 helicase activity expressed in baculovirus infected Sf9 cells using 5'-[FITC]-UUCCCCUGCAUAAC-3'/5'-GUUAUGCAGGGGAACCAACGCAUAUCAGUGAGGAUU-3' RNA as substrate after 10 mins in presence of ATP by PAGE analysis
[7] = Permeability of the compound at pH 7.4 by PAMPA; format: physicochemical; conditions: read-out: permeability
[8] = target: T1, U5 small nuclear ribonucleoprotein 200 kDa helicase; test: Inhibition of full length recombinant human N-terminal His-tagged BRR2 helicase activity expressed in baculovirus infected Sf9 cells using 5'-[FITC]-UUCCCCUGCAUAAC-3'/5'-GUUAUGCAGGGGAACCAACGCAUAUCAGUGAGGAUU-3' RNA as substrate at 100 uM after 10 mins in presence of ATP by PAGE analysis

An IC50 [1] of 0.042 µM was found for `CC(C)C[C@H]1C[C@@H](C)[C@]2(C(=O)Nc3ccc(F)cc32)N1C(=O)c1cn(C)cn1` (racemic) in this work.
An IC50 [1] of 0.021 µM, an IC50 [2] of over 100 µM and an IC50 [3] of over 100 µM were found for `CC(C)C[C@H]1C[C@@H](C)[C@]2(C(=O)Nc3ccc(F)cc32)N1C(=O)c1cn(C)cn1` in this work. The IC50 [4] was over 100 µM, the solubility [5] was over 99 µg/mL and the IC50 [6] was 0.48 µM. The Papp [7] was 18.3 ×10⁻⁶ cm/s.
An IC50 [1] of 0.011 µM, an IC50 [2] of over 100 µM and an IC50 [3] of over 100 µM were found for `CC(C)C[C@H]1C[C@@H](C)[C@]2(C(=O)Nc3ccc(F)cc32)N1C(=O)c1cn(Cc2ccccc2)cn1` in this work. For the same molecule, the IC50 [4] was over 100 µM, the solubility [5] was 45 µg/mL (≈ 97.7 µM) and the IC50 [6] was 0.35 µM. It also gave a Papp [7] of 18.2 ×10⁻⁶ cm/s.
An IC50 [1] of 0.024 µM was found for `CC(C)C[C@H]1C[C@@H](C)[C@]2(C(=O)Nc3ccc(F)cc32)N1C(=O)c1cn(Cc2ccccc2)cn1` (racemic) in this work.
An IC50 [1] of 84 µM, an IC50 [2] of over 100 µM and an IC50 [3] of over 100 µM were found for `CC(C)C[C@@H]1C[C@H](C)[C@@]2(C(=O)Nc3ccc(F)cc32)N1C(=O)c1cn(C)cn1` in this work. The solubility [5] was over 110 µg/mL, the inhibition [8] was “inactive” and the Papp [7] was 16.8 ×10⁻⁶ cm/s.
An IC50 [1] of over 100 µM, an IC50 [2] of over 100 µM and an IC50 [3] of over 100 µM were found for `CC(C)C[C@@H]1C[C@H](C)[C@@]2(C(=O)Nc3ccc(F)cc32)N1C(=O)c1cn(Cc2ccccc2)cn1` in this work. For the same molecule, the solubility [5] was 46 µg/mL (≈ 99.9 µM), the inhibition [8] was “inactive” and the Papp [7] was 19.5 ×10⁻⁶ cm/s.
